Data reported in ChEMBL document CHEMBL3991601, “The target landscape of clinical kinase drugs” (Science, 2017).
pKd: −log10 of the molar value. Counter-ions that a name gives are not always drawn. The source made the active and inactive calls.

Columns and labels:
[1] = molecular target: T1, Eukaryotic translation initiation factor 5B (Homo sapiens, UniProt O60841)
T1 sequence (O60841 whole entry): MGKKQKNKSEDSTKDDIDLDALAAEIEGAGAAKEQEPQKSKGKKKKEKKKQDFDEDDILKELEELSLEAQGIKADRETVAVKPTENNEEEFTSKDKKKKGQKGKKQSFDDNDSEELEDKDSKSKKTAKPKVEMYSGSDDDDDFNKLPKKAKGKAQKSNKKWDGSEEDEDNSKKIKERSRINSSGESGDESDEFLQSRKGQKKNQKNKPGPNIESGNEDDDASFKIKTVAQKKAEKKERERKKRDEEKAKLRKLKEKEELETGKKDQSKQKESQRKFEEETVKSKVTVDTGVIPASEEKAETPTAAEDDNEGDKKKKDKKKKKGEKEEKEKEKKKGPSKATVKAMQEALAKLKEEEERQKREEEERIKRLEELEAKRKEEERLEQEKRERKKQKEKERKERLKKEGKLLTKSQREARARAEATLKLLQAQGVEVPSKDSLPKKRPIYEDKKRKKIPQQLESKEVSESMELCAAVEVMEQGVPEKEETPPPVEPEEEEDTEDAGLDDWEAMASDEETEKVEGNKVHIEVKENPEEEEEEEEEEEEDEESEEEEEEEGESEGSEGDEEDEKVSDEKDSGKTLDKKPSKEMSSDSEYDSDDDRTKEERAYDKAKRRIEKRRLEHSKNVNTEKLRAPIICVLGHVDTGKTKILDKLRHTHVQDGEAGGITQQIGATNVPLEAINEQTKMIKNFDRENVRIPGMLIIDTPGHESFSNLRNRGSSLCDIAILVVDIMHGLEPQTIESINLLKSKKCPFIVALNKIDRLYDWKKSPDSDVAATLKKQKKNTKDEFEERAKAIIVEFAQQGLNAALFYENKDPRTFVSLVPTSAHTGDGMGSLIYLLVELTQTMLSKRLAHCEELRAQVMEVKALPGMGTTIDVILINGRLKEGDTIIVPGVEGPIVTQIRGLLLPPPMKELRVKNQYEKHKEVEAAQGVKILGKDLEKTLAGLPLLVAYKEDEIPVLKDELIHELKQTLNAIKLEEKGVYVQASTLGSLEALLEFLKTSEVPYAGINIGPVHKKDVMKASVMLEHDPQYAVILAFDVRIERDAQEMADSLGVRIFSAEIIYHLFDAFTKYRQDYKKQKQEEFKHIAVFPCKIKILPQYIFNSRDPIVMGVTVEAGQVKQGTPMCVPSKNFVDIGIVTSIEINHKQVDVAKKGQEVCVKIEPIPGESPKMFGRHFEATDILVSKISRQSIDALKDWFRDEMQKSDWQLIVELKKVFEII

[2] = molecular target: Atypical kinase COQ8A, mitochondrial (Homo sapiens, UniProt Q8NI60)
Atypical kinase COQ8A, mitochondrial, sequence (Q8NI60 whole entry): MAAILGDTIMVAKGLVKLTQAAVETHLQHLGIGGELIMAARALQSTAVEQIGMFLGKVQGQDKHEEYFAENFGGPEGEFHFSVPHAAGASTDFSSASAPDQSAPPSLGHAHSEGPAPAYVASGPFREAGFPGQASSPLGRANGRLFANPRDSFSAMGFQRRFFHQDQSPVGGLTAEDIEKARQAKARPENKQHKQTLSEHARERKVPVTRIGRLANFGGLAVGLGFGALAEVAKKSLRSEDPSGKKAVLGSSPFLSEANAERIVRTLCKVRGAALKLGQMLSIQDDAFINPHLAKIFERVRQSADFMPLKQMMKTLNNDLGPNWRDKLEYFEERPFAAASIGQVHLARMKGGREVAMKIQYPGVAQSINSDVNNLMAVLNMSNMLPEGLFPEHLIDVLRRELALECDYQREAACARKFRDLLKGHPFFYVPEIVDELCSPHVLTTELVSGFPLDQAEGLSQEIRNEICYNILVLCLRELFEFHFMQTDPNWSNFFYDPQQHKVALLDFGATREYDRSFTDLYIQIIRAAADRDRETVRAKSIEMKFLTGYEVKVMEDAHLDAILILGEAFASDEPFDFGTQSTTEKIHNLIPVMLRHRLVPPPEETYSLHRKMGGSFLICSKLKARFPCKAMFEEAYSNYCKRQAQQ

[3] = molecular target: Serine/threonine-protein kinase pim-1 (Homo sapiens, UniProt P11309)
Serine/threonine-protein kinase pim-1, sequence (P11309 whole entry): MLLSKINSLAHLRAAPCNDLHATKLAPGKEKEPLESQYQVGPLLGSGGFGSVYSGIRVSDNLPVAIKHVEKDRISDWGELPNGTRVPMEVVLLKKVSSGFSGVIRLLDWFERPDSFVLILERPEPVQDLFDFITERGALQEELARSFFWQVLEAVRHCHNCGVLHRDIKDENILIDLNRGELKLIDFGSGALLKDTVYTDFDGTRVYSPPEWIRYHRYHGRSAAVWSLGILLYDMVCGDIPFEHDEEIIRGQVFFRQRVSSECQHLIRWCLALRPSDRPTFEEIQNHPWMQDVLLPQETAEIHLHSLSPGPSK

[4] = molecular target: Myosin light chain kinase, smooth muscle (Homo sapiens, UniProt Q15746)
Myosin light chain kinase, smooth muscle, sequence (Q15746 whole entry): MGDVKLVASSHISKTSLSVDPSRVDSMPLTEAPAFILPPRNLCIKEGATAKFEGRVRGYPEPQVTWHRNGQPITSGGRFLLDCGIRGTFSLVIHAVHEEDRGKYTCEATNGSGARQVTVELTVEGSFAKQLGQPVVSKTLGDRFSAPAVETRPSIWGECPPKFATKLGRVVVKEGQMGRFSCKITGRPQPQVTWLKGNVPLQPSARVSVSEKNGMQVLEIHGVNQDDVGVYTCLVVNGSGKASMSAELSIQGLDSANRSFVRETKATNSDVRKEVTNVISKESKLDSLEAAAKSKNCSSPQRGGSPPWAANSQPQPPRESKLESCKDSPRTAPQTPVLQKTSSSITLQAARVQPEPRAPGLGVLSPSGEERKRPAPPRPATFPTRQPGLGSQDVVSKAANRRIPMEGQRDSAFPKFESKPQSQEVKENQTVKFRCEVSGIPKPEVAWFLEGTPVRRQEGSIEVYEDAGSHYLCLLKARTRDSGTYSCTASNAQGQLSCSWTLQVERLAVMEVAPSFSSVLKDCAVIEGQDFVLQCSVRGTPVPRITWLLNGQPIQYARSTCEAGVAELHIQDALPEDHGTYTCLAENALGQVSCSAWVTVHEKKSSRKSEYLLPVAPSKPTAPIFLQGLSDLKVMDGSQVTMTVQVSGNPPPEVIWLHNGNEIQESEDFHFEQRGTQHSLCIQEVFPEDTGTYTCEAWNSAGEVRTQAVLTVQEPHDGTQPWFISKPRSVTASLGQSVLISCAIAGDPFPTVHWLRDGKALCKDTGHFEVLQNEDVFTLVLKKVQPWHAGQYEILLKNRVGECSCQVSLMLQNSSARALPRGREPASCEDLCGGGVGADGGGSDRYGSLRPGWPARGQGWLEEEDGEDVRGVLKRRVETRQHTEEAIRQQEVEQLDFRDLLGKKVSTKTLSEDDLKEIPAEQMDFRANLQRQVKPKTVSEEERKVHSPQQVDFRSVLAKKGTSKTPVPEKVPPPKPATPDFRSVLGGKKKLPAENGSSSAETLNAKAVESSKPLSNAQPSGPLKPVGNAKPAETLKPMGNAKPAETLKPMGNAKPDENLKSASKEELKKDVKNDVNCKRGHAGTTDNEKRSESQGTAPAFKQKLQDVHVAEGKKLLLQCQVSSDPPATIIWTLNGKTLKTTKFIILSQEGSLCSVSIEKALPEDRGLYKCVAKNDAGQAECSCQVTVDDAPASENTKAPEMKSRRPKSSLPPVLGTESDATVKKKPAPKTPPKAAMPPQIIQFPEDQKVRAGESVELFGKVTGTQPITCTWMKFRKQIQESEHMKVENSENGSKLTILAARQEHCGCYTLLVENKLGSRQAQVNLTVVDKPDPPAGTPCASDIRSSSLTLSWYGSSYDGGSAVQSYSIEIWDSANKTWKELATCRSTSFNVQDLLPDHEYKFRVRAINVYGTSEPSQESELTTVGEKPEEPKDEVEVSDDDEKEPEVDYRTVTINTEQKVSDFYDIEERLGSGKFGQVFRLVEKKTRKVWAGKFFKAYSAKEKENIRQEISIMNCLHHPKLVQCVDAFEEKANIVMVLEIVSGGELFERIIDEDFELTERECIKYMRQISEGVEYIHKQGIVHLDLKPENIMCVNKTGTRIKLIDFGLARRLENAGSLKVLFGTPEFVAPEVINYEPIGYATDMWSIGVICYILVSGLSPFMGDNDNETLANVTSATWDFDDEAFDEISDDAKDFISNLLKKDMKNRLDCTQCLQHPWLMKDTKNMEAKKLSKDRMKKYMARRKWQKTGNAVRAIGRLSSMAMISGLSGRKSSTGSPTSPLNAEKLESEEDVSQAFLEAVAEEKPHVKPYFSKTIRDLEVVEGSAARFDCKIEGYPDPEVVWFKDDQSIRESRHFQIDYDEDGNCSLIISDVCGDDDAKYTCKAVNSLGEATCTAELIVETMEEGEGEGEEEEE

Ephrin type-A receptor 4 = Ephrin type-A receptor 4 (Homo sapiens, UniProt P54764)
[5] = molecular target: T2, Inhibitor of nuclear factor kappa-B kinase subunit epsilon (Homo sapiens, UniProt Q14164)
T2 sequence (Q14164 whole entry): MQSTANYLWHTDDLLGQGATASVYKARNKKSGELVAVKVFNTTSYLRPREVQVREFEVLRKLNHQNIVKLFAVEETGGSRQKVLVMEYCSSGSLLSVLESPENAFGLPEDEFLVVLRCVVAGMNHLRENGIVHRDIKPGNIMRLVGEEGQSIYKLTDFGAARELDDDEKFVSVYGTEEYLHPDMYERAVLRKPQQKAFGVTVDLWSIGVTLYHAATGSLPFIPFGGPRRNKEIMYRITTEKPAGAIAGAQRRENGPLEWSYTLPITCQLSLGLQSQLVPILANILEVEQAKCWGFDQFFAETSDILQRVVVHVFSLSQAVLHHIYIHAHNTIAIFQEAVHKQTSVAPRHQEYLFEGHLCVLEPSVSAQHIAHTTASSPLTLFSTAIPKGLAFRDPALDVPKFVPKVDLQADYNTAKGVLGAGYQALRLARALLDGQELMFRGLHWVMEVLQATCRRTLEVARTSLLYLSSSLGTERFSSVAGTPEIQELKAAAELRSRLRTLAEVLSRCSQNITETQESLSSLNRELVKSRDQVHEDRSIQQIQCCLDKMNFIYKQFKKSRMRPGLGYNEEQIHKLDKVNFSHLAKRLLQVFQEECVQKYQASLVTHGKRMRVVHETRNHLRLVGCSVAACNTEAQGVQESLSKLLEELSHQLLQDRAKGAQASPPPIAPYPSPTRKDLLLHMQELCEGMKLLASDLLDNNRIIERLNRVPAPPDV

[6] = molecular target: Dual specificity mitogen-activated protein kinase kinase 1 (Homo sapiens, UniProt Q02750)
[7] = molecular target: Casein kinase I isoform gamma-1 (Homo sapiens, UniProt Q9HCP0)
Casein kinase I isoform gamma-1, sequence (Q9HCP0 whole entry, canonical isoform): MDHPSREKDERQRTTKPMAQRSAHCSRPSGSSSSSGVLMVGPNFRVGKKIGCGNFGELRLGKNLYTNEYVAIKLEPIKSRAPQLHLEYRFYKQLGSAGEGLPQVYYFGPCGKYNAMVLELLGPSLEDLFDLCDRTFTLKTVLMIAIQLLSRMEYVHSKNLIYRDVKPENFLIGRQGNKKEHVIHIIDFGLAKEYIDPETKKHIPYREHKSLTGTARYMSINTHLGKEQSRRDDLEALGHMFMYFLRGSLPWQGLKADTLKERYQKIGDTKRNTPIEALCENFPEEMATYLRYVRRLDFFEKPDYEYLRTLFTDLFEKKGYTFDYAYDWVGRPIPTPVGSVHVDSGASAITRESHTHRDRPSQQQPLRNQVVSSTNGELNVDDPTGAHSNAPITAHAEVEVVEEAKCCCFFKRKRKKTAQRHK

[8] = molecular target: Ribosomal protein S6 kinase alpha-6 (Homo sapiens, UniProt Q9UK32)
Ribosomal protein S6 kinase alpha-6, sequence (Q9UK32 whole entry): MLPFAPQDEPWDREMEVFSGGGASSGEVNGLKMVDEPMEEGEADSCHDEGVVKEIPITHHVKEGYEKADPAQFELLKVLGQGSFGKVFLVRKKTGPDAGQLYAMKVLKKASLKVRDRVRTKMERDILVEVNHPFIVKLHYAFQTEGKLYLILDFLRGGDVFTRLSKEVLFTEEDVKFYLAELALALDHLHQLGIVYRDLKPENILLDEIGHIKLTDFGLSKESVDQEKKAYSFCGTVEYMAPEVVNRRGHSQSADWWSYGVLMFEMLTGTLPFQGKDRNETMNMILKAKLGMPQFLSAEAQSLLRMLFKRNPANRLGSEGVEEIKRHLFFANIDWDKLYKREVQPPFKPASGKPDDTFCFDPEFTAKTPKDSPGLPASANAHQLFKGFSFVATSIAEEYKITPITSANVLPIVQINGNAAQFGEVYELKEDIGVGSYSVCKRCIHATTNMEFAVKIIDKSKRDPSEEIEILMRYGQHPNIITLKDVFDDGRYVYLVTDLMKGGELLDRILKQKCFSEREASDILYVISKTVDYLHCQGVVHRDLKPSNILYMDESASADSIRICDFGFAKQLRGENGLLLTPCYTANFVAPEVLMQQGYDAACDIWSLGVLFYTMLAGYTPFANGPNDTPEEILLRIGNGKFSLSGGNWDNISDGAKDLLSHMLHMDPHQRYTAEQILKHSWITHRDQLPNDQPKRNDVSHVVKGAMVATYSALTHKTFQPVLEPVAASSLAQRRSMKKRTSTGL

[9] = molecular target: Serine/threonine-protein kinase 16 (Homo sapiens, UniProt O75716)
ADP/ATP translocase 3 = molecular target: T3, ADP/ATP translocase 3 (Homo sapiens, UniProt P12236)
T3 sequence (P12236 whole entry): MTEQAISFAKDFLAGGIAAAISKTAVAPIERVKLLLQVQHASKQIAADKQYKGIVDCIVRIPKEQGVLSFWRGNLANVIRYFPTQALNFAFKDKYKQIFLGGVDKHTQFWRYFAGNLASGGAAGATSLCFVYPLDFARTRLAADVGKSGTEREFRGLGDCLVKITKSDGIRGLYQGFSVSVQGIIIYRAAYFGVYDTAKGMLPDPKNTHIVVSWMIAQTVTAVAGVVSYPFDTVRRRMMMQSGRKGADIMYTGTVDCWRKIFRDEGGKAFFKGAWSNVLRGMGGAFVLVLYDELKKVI

[10] = molecular target: Bone morphogenetic protein receptor type-1A (Homo sapiens, UniProt P36894)
Bone morphogenetic protein receptor type-1A, sequence (P36894 whole entry): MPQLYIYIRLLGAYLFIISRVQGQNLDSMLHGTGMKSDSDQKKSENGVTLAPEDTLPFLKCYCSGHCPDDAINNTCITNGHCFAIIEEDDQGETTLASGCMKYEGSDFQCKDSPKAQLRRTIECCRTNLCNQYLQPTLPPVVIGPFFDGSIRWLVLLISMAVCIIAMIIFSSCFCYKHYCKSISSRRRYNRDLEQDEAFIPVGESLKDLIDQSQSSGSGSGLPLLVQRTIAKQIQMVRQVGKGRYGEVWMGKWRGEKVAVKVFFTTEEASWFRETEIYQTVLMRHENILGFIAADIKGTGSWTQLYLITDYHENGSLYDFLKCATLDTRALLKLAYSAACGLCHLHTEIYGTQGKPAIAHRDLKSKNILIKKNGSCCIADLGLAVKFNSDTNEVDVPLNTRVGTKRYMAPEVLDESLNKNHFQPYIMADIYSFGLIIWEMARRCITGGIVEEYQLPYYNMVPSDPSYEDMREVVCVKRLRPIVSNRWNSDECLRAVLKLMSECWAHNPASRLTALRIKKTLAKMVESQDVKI

Adenosine kinase = Adenosine kinase (Homo sapiens, UniProt P55263)
Adenosine kinase, sequence (P55263 whole entry): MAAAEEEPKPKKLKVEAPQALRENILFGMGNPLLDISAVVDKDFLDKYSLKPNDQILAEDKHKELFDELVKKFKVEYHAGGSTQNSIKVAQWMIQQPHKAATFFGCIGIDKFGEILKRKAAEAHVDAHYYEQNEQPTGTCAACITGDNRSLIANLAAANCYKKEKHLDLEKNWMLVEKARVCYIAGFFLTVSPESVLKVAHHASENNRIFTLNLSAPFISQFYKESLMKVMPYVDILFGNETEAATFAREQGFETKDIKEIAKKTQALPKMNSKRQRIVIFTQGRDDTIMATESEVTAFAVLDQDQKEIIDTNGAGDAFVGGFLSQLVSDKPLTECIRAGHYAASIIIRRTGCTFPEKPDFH
Further: in the data inactive means no Kd found up to 30 µM.

SMILES | Kd [1] | Kd [2] | Kd [3] | Kd [4] | Kd (Ephrin type-A receptor 4) | Kd [5] | pKd [6] | Kd [7] | Kd [8] | Kd [9] | Kd (ADP/ATP translocase 3) | Kd [10] | Kd [6] | Kd (Adenosine kinase)
CC(C)c1cc(CNc2nc(Nc3cc(C4CC4)[nH]n3)cc(N3CCN(C)CC3)n2)on1 [XL-228] | > 30 µM (inactive) | > 30 µM (inactive) | > 30 µM (inactive) | > 30 µM (inactive) | 0.167 µM (active) | 1.39 µM (active) | 5.15 | > 30 µM (inactive) | > 30 µM (inactive) | > 30 µM (inactive) | > 30 µM (inactive) |  |  | 
CCS(=O)(=O)N1CCN(c2ccc(Nc3ncc(C(N)=O)c(NC4CC4)n3)cc2)CC1 [Cerdulatinib Hydrochloride] | > 30 µM (inactive) | > 30 µM (inactive) | > 30 µM (inactive) | > 30 µM (inactive) | > 30 µM (inactive) | 1.29 µM (active) |  | > 30 µM (inactive) | 0.455 µM (active) | > 30 µM (inactive) | > 30 µM (inactive) | > 30 µM (inactive) | > 30 µM (inactive) | 
Cc1cc(C(=O)NOCCO)c(Nc2ccc(I)cc2F)n(C)c1=O [AZD-8330] | > 30 µM (inactive) | > 30 µM (inactive) | > 30 µM (inactive) | > 30 µM (inactive) | > 30 µM (inactive) | > 30 µM (inactive) |  | > 30 µM (inactive) | > 30 µM (inactive) | > 30 µM (inactive) | > 30 µM (inactive) | > 30 µM (inactive) |  | > 30 µM (inactive)
CNC(=O)c1cc(Oc2ccc(NC(=O)Nc3cc(C(C)(C)C)nn3-c3ccc4ncccc4c3)c(F)c2)ccn1 [REBASTINIB] | > 30 µM (inactive) | > 30 µM (inactive) | > 30 µM (inactive) | 2.18 µM (active) | > 30 µM (inactive) | > 30 µM (inactive) |  | > 30 µM (inactive) | > 30 µM (inactive) |  | > 30 µM (inactive) | > 30 µM (inactive) | > 30 µM (inactive) | > 30 µM (inactive)
CNC(=O)c1cccc2cc(Oc3ccnc4cc(OCC5(N)CC5)c(OC)cc34)ccc12 [LUCITANIB] | > 30 µM (inactive) | > 30 µM (inactive) | > 30 µM (inactive) |  | > 30 µM (inactive) | > 30 µM (inactive) |  | > 30 µM (inactive) | > 30 µM (inactive) | > 30 µM (inactive) | > 30 µM (inactive) | > 30 µM (inactive) | > 30 µM (inactive) | > 30 µM (inactive)
O=C(Nc1c[nH]nc1-c1nc2cc(CN3CCOCC3)ccc2[nH]1)NC1CC1 [AT-9283] | > 30 µM (inactive) | > 30 µM (inactive) | > 30 µM (inactive) | > 30 µM (inactive) | 43.9 µM (active) | 0.215 µM (active) |  | > 30 µM (inactive) |  | 1.28 µM (active) | > 30 µM (inactive) | 0.388 µM (active) | > 30 µM (inactive) | > 30 µM (inactive)
